The values below come from PubChem BioAssay (NCI).

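1) Cells in 96-well plates. 2) Compound, 48 h, 5 concentrations. 3) Linear interpolation between surrounding doses. 4) Unreached endpoint = highest concentration. TGI denotes the concentration required for complete inhibition of growth.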 Where only a bound is given, the exact number is not on record here.

Some test systems named below: OVCAR-5 ovarian; MOLT-4 leukemia; 786-0 renal; CAKI-1 renal; UACC-62 melanoma; RPMI-8226 leukemia; CCRF-CEM leukemia; HCT-15 colon; HOP-92 NSCLC; HOP-62 NSCLC; SR leukemia; UACC-257 melanoma.
Experiment in all cases: DTP human tumour cell line panel, 48 h

On to `COC(=O)C(C)(N=Cc1ccccc1)c1ccccc1` (stereo unspecified), for which the concentration for total growth inhibition (TGI) in the assay on OVCAR-5 ovarian, in the assay with MOLT-4 leukemia, with 786-0 renal, with CAKI-1 renal, in the assay on UACC-62 melanoma and in the assay on RPMI-8226 leukemia was over 100 µM each time. Also, the TGI in the assay with CCRF-CEM leukemia, in the assay on HCT-15 colon, in the assay on HOP-92 NSCLC, in the assay on HOP-62 NSCLC, with SR leukemia and with UACC-257 melanoma was over 100 µM throughout.

Consider `Cn1ccn2c3nc4ccccc4nc3c(=O)c(C#N)c12`, for which the TGI – broadly, the concentration giving total growth inhibition – in the assay on OVCAR-5 ovarian is over 100 µM; in the assay on MOLT-4 leukemia it was over 100 µM; with 786-0 renal, over 89.9 µM; with CAKI-1 renal it was over 100 µM; in the assay on UACC-62 melanoma, over 100 µM; in the assay with RPMI-8226 leukemia it was over 100 µM. The TGI in the assay with CCRF-CEM leukemia, with HCT-15 colon, in the assay with HOP-92 NSCLC, in the assay on SR leukemia and in the assay on UACC-257 melanoma was over 100 µM throughout.

As for `CC(C)[C@@H]1CC[C@@H](C)C[C@H]1OC(=O)/C=C1/C2C=CC(O2)C1C(=O)O[C@@H]1C[C@H](C)CC[C@H]1C(C)C` (stereo partly specified), the TGI in the assay with OVCAR-5 ovarian, in the assay on MOLT-4 leukemia, in the assay on 786-0 renal, in the assay on CAKI-1 renal, in the assay with UACC-62 melanoma and in the assay with RPMI-8226 leukemia was over 100 µM throughout. The total growth inhibition concentration (TGI) in the assay on CCRF-CEM leukemia, in the assay with HCT-15 colon, in the assay on HOP-92 NSCLC, in the assay on HOP-62 NSCLC, in the assay on SR leukemia and in the assay on UACC-257 melanoma was over 100 µM each time.

For `COc1cc(OC)c2c(O)c3c(cc2c1)CC(C)(C)CC3=O`, the TGI in the assay with OVCAR-5 ovarian, in the assay on MOLT-4 leukemia, in the assay on 786-0 renal, in the assay with CAKI-1 renal, with UACC-62 melanoma and in the assay on RPMI-8226 leukemia was over 100 µM in each case. The TGI in the assay with CCRF-CEM leukemia, in the assay on HCT-15 colon, in the assay with HOP-92 NSCLC, in the assay on HOP-62 NSCLC, in the assay on SR leukemia and with UACC-257 melanoma was over 100 µM in each case.

As for `O=C(Nc1nc2ccccc2n1Cc1ccccc1)NC12CC3CC(CC(C3)C1)C2`, the concentration for total growth inhibition (TGI) is over 100 µM in the assay with OVCAR-5 ovarian; over 100 µM in the assay with MOLT-4 leukemia; 92.9 µM in the assay with 786-0 renal; over 100 µM with CAKI-1 renal; over 100 µM with UACC-62 melanoma; over 100 µM in the assay on RPMI-8226 leukemia. For the same compound, the TGI in the assay on CCRF-CEM leukemia is over 100 µM; in the assay with HCT-15 colon, over 100 µM; in the assay with HOP-92 NSCLC, 83.6 µM; in the assay on HOP-62 NSCLC, over 100 µM; with SR leukemia, over 100 µM; in the assay on UACC-257 melanoma, over 100 µM.

Consider `COC(=O)C(CCc1ccccc1I)C1=CCC2(CC1)OCCO2` (stereo unspecified), for which the TGI in the assay on OVCAR-5 ovarian is 95.8 µM; with MOLT-4 leukemia it was over 100 µM; with 786-0 renal it was over 100 µM; in the assay with CAKI-1 renal, over 100 µM; with UACC-62 melanoma, over 100 µM; in the assay with RPMI-8226 leukemia, over 100 µM. For the same compound, the TGI in the assay with CCRF-CEM leukemia was 33.7 µM; in the assay on HCT-15 colon, over 100 µM; in the assay with HOP-92 NSCLC it was over 100 µM; with HOP-62 NSCLC it was over 100 µM; in the assay with SR leukemia, over 100 µM; in the assay with UACC-257 melanoma, over 100 µM.

`C=CCOc1ccccc1N=N/C(C#N)=N\Nc1ccccc1OCC=C`: the TGI in the assay on OVCAR-5 ovarian, in the assay on MOLT-4 leukemia, with 786-0 renal, in the assay on CAKI-1 renal, in the assay with UACC-62 melanoma and in the assay with RPMI-8226 leukemia was over 100 µM each time. The TGI with CCRF-CEM leukemia, in the assay on HCT-15 colon, in the assay with HOP-92 NSCLC, in the assay with HOP-62 NSCLC, in the assay on SR leukemia and in the assay on UACC-257 melanoma was over 100 µM in each case.

Regarding `O=C1C(NCCc2ccc(O)c(O)c2)=CC(=O)c2ncccc21`, the TGI is 40.2 µM in the assay with OVCAR-5 ovarian; 34.6 µM in the assay on MOLT-4 leukemia; 43.2 µM in the assay on 786-0 renal; 21.5 µM with CAKI-1 renal; 22.5 µM with UACC-62 melanoma; over 70 µM in the assay on RPMI-8226 leukemia. Moreover, the total growth inhibition concentration (TGI) in the assay on CCRF-CEM leukemia was 60.4 µM; in the assay on HCT-15 colon, 55.7 µM; in the assay on HOP-92 NSCLC it was 54.3 µM; in the assay on HOP-62 NSCLC, 49.9 µM; in the assay on SR leukemia it was over 100 µM; in the assay with UACC-257 melanoma, 24.8 µM.

Consider `O=C(O)CCCCCOc1cccnc1/C=N/NC1=NCCN1`, for which the TGI with OVCAR-5 ovarian, with MOLT-4 leukemia, with 786-0 renal, in the assay with CAKI-1 renal, in the assay with UACC-62 melanoma and in the assay on RPMI-8226 leukemia was over 100 µM each time. In addition, the TGI in the assay with CCRF-CEM leukemia, in the assay with HCT-15 colon, in the assay with HOP-92 NSCLC, in the assay with HOP-62 NSCLC, in the assay on SR leukemia and in the assay on UACC-257 melanoma was over 100 µM in each case.

As for `CC(C(=O)ON1C(=O)CCC1=O)c1ccc(C(=O)c2ccccc2)s1` (stereo unspecified), the TGI in the assay on OVCAR-5 ovarian, in the assay on MOLT-4 leukemia, in the assay with 786-0 renal, in the assay with CAKI-1 renal, with UACC-62 melanoma and in the assay on RPMI-8226 leukemia was over 100 µM in each case. Besides, the concentration for total growth inhibition (TGI) in the assay on CCRF-CEM leukemia, with HCT-15 colon, with HOP-92 NSCLC, with HOP-62 NSCLC, with SR leukemia and with UACC-257 melanoma was over 100 µM each time.

Regarding `O=C(CN1CCN(Cc2ccccc2)CC1)N1CCCn2c1nc1ccccc1c2=O`, the TGI with OVCAR-5 ovarian, in the assay on MOLT-4 leukemia, in the assay with 786-0 renal, in the assay on CAKI-1 renal, in the assay with UACC-62 melanoma and in the assay with RPMI-8226 leukemia was over 100 µM each time. Moreover, the TGI was over 100 µM in the assay with CCRF-CEM leukemia; over 100 µM with HCT-15 colon; 52.5 µM in the assay on HOP-92 NSCLC; over 100 µM with HOP-62 NSCLC; over 100 µM with SR leukemia; over 100 µM in the assay on UACC-257 melanoma.

For `[Se]=P(c1ccccc1)(c1ccccc1)c1ccc(C(c2ccccc2)=P(c2ccccc2)(c2ccccc2)c2ccccc2)cc1`, the TGI in the assay with OVCAR-5 ovarian turned out to be 18.7 µM; in the assay with MOLT-4 leukemia it was 12.6 µM; in the assay on 786-0 renal it was 10.8 µM; in the assay with CAKI-1 renal, 8.5 µM; in the assay with UACC-62 melanoma, 3.85 µM; in the assay on RPMI-8226 leukemia it was 8.05 µM. The TGI is 8.37 µM in the assay with CCRF-CEM leukemia; 18.8 µM in the assay with HCT-15 colon; 1.91 µM in the assay with HOP-92 NSCLC; 4.33 µM in the assay on HOP-62 NSCLC; over 33.3 µM with SR leukemia; 5.59 µM with UACC-257 melanoma.

As to `c1ccc(C2=Nc3nc4ccccc4n3C(c3ccccc3)C2)cc1` (stereo unspecified), the TGI with OVCAR-5 ovarian, with MOLT-4 leukemia, with 786-0 renal, with CAKI-1 renal, with UACC-62 melanoma and with RPMI-8226 leukemia was over 100 µM each time. Besides, the TGI with CCRF-CEM leukemia, with HCT-15 colon, with HOP-92 NSCLC, in the assay with HOP-62 NSCLC, in the assay on SR leukemia and in the assay on UACC-257 melanoma was over 100 µM each time.

On to `CC12CCC(C(=O)O1)C(C)(C)O2` (stereo unspecified), for which the TGI in the assay on OVCAR-5 ovarian, in the assay with MOLT-4 leukemia, with 786-0 renal, in the assay with CAKI-1 renal, in the assay on UACC-62 melanoma and in the assay with RPMI-8226 leukemia was over 100 µM throughout. The TGI in the assay on CCRF-CEM leukemia, in the assay with HCT-15 colon, with HOP-92 NSCLC, with HOP-62 NSCLC, in the assay on SR leukemia and with UACC-257 melanoma was over 100 µM throughout.

On to `Cc1ccc(S(=O)(=O)/N=C(\NN)Nc2ccc(Cl)cc2)cc1`, for which the total growth inhibition concentration (TGI) in the assay on OVCAR-5 ovarian, in the assay with MOLT-4 leukemia, with 786-0 renal, in the assay on CAKI-1 renal, with UACC-62 melanoma and in the assay with RPMI-8226 leukemia was over 100 µM throughout. The TGI with CCRF-CEM leukemia, in the assay with HCT-15 colon, in the assay with HOP-92 NSCLC, with HOP-62 NSCLC, in the assay on SR leukemia and in the assay with UACC-257 melanoma was over 100 µM each time.

For the compound `O=C1CSc2nc3ccccc3n2/C=N\N1`, the TGI with OVCAR-5 ovarian, in the assay on MOLT-4 leukemia, in the assay with 786-0 renal, with CAKI-1 renal, in the assay on UACC-62 melanoma and in the assay with RPMI-8226 leukemia was over 100 µM throughout. In addition, the TGI in the assay on CCRF-CEM leukemia, in the assay on HCT-15 colon, in the assay with HOP-92 NSCLC, in the assay on SR leukemia and with UACC-257 melanoma was over 100 µM each time.

On to `O=C(Nc1cccc(C(F)(F)F)c1)O/N=C(/Cl)CCl`, for which the TGI in the assay on OVCAR-5 ovarian was 45.3 µM; in the assay on MOLT-4 leukemia it was 79.6 µM; with 786-0 renal, over 100 µM; with CAKI-1 renal, over 100 µM; in the assay on RPMI-8226 leukemia, 75.1 µM; in the assay on CCRF-CEM leukemia, over 100 µM. Further, the TGI in the assay with HCT-15 colon is over 100 µM; in the assay on HOP-92 NSCLC, 59.2 µM; in the assay on HOP-62 NSCLC, over 100 µM; with SR leukemia, 62.8 µM; with UACC-257 melanoma, over 100 µM.
